Data published in patent publication US10827755B2, “Insecticidal compositions and methods” (priority 2015, dated 2020).

How the values were obtained:
Format in all cases: in vivo
[1] = test system: Western Corn Root Worm (WCR); assay: Insect feeding assay (Example 3), Western corn rootworm; parameters: key: A “+” score was given to samples which showed any level of stunting and/or mortality higher than that of the untreated controls; A “−” score was given to samples which showed no activity; details: 0.1 mg/mL diet overlay, 6 days, 27° C., summary of three replicates
Description: (§1) For evaluating control of insect species, the test unit consisted of a 96-well bioassay plate filled with a species-specific artificial diet. Compounds were dissolved in DMSO and added as diet overlay to the indicated concentration, and dried/maintained overnight before infestation. Once dry, the bioassay plates were infested with a single neonate larva (nymph for lygus) per well. The bioassay plates were then held for 6 days in an incubator at 27° C. and 50% relative humidity. Sample response was then visually assessed based on mortality and stunting of the insect. […] Western corn rootworm data represents a summary of three replicates. Data for all other insect species represents a summary of two replicates.

[2] = test system: Yellow Fever Mosquito (YFM); assay: Insect feeding assay (Example 3), yellow fever mosquito; parameters: key: A “+” score was given to samples which showed any level of stunting and/or mortality higher than that of the untreated controls; A “−” score was given to samples which showed no activity; details: 0.1 mginiL diet overlay, 6 days, 27° C., summary of two replicates
Description: as §1

Diamondback Moth (DBM) [3] = assay: Insect feeding assay (Example 4), diamondback moth; parameters: key: “+” represents mortality or stunting significantly different compared to the untreated control; “−” represents no significant difference in mortality or stunting compared to the untreated control; details: 0.05 mg/mL diet overlay, 6 days, 27° C.
Description: (§2) For evaluating control of insect species in this example, the test unit consisted of a 96-well bioassay plate filled with species-specific artificial diet. Compounds were dissolved in DMSO and added as diet overlay to the indicated concentration and dried/maintained overnight before infestation. Once dry, the bioassay plates were infested with a single neonate larva (nymph for lygus) per well. The bioassay plates were held for 6 days in an incubator at 27° C. and 50% relative humidity. Each well was assessed for infestation and contamination. Wells that were contaminated or not infested were not included in the stunting and mortality assessment. A stunting score was reported based on the relative size of the survivors within the 8-well column with averaging across a 3 column replicate. Untreated control insects were used as a reference.

Fall Armyworm (FAW) = assay: Insect feeding assay (Example 4), fall armyworm; parameters: key: “+” represents mortality or stunting significantly different compared to the untreated control; “−” represents no significant difference in mortality or stunting compared to the untreated control; details: 0.05 mg/mL diet overlay, 6 days, 27° C.
Description: as §2

Soybean Looper (SL) = assay: Insect feeding assay (Example 4), soybean looper; parameters: key: “+” represents mortality or stunting significantly different compared to the untreated control; “−” represents no significant difference in mortality or stunting compared to the untreated control; details: 0.05 mg/mL diet overlay, 6 days, 27° C.
Description: as §2

[4] = test system: Western Tarnished Plantbug; assay: Insect feeding assay (Example 4), Western tarnished plantbug; parameters: key: “+” represents mortality or stunting significantly different compared to the untreated control; “−” represents no significant difference in mortality or stunting compared to the untreated control; details: 0.05 mg/mL diet overlay, nymph, 6 days, 27° C.
Description: as §2

[5] = test system: Yellow Fever Mosquito (YEW); assay: Insect feeding assay (Example 4), yellow fever mosquito; parameters: key: “+” represents mortality or stunting significantly different compared to the untreated control; “−” represents no significant difference in mortality or stunting compared to the untreated control; details: 0.05 mg/mL diet overlay, 6 days, 27° C.
Description: as §2

[6] = test system: Western Corn Rootworm (WCR); assay: Insect feeding assay (Example 4), Western corn rootworm; parameters: key: “+” represents mortality or stunting significantly different compared to the untreated control; “−” represents no significant difference in mortality or stunting compared to the untreated control; details: 0.05 mg/mL diet overlay, 6 days, 27° C.
Description: as §2

Diamondback Moth (DBM) [7] = assay: Insect feeding assay (Example 3), diamondback moth; parameters: key: A “+” score was given to samples which showed any level of stunting and/or mortality higher than that of the untreated controls; A “−” score was given to samples which showed no activity; details: 0.1 mg/mL diet overlay, 6 days, 27° C., summary of two replicates
Description: as §1

| SMILES | WCR (0.1 mg/mL) mortality and stunting score [1] | YEM (0.1 mginiL) mortality and stunting score [2] | DBM (0.05 mg/mL) mortality or stunting (Diamondback Moth (DBM) [3]) | FAW (0.05 mg/mL) mortality or stunting (Fall Armyworm (FAW)) | SL (0.05 mg/mL) mortality or stunting (Soybean Looper (SL)) | WTP (0.05 mg/mL mortality or stunting) [4] | YFM (0.05 mg/mL) mortality or stunting [5] | WCR (0.05 mg/mL) mortality or stunting [6] | DBM (0.1 mg/mL) mortality and stunting score (Diamondback Moth (DBM) [7]) |
| --- | --- | --- | --- | --- | --- | --- | --- | --- | --- |
| Cc1cc(C)c(-c2nc(-c3ccccc3)c(-c3ccccc3)[nH]2)c(C)c1 [I-i] | + | + | + | − | − | − | − |  |  |
| Cc1ccc(C)c(-c2nc(-c3c(Cl)cccc3Cl)[nH]c2-c2ccccc2)c1 [I-ii] | + | + | + | + | + | + | + |  |  |
| Cc1ccc(C)c(-c2nc(-c3c(F)cccc3Cl)[nH]c2-c2ccccc2)c1 [I-iii] |  | + |  |  |  |  |  |  |  |
| COc1ccc(-c2nc(-c3ccccc3)c(-c3ccccc3)[nH]2)c(OC)c1 [I-iv] | + | + | + | − | − | − | + |  |  |
| CSc1ccc(-c2nc(-c3ccc(C)cc3)c(-c3ccc(C)cc3)[nH]2)cc1 [I-ix] |  |  | + | + | + | − | − | + |  |
| CCOc1ccccc1-c1nc(-c2ccccc2)c(-c2ccccc2)[nH]1 [I-v] | + |  | − | − | − | − | − |  |  |
| C#CCOc1ccccc1-c1nc(-c2ccccc2)c(-c2ccccc2)[nH]1 [I-vi] |  |  | + | − | − | + | + |  |  |
| Clc1cccc(-c2[nH]c(-c3ccc(Cl)cc3Cl)nc2-c2ccccc2)c1 [I-vii] |  |  | + | + | + | − | + |  |  |
| COc1ccc(-c2nc(-c3ccccc3)c(-c3ccccc3)[nH]2)c(OC)c1OC [I-viii] |  |  | + | − | − | − | + | + |  |
| O=C(c1ccc(F)cc1)c1ccc(-c2nc(-c3cccc(F)c3)[nH]c2-c2ccccc2)cc1 [I-x] |  |  | + | + | + | + | − | + |  |
| C=CCNC(=O)c1cn(-c2ccc(C)cc2)nc1-c1ccccc1 [II-i] |  | + | + |  |  |  |  |  | + |
| CC1CCCCC1NC(=O)c1cn(-c2ccccc2)nc1-c1cccs1 (stereo not drawn) [II-ii] |  |  | − | − | − | − | − |  | + |
| CCOCCNC(=O)c1cn(C)nc1-c1ccccc1Cl [II-iii] |  | + | − | − | − | − | − |  |  |
| Cn1cc(C(=O)NCCC2CCCO2)c(-c2ccccc2Cl)n1 (stereo not drawn) [II-iv] |  | + | − | − | − | − | − |  |  |
| Cn1cc(C(=O)NC2CCSCC2)c(-c2ccccc2Cl)n1 [II-v] |  | + |  |  |  |  |  |  |  |
